Reference: patent publication US6465479B1, “Pyridomorphinans and use thereof” (Southern Research Institute, priority 1999, dated 2002)
Several values for one entry are separate records, joined by “and”; a condition that tells them apart may be missing. Equal entries are not always repeated. Entries after “also recorded” stand apart in the source; their conditions may differ. Where two headings read alike, the source gives them in different places.

How the values were obtained:
[1] = tested on: mice; experiment: Overt signs of toxicity in mice during the antinociceptive studies; settings: dose ranges tested
[2] = tested on: male ICR mice; experiment: 55° C. warm-water tail-flick test, antinociception; type: in vivo, mouse; settings: for agonist character in tail-flick, i.c.v.: icv injection
Description: (§1) In the following examples, male ICR mice(20-30 grams) were used. […] The solution was brought up to approximately pH 5.5 with 1.74 M NaOH and then the final volume adjusted with distilled water. […] Additional compounds used in these studies were dissolved in distilled water (i.c.v. injections) or physiological saline (i.p. injections).
(§2) Antinociception was assessed using either the 55° C. warm-water tail-flick test or the acetic-acid writhing assay. […] Each mouse was first tested for baseline latency by immersing its tail in the water and recording the time to response. Mice not responding within 5 sec were excluded from further testing. Mice were then administered the test compound and tested for antinociception at 10, 20, 30, 45, 60 and 90 min post-injection. A maximum score was assigned (100%) to animals not responding within 15 sec to avoid tissue damage. Antinociception was calculated by the following formula: % antinociception=100×(test latency-control latency)/(15-control latency). For the acetic acid writhing test, mice were injected i.p. with 0.9% acetic acid. They were then placed in a clear Plexiglas observation jar and the number of abdominal writhes recorded for 15 min (Mogil et al., Heritability of nociception I: responses of 11 inbred mouse strains on 12 measures of nociception. Pain 80:67-82,1999). Percent antinociception was calculated using the formula: % MPE (maximum possible effect)=100−((#writhes individual mouse/mean # writhes control group)×100).

[3] = target: κ receptors (Cavia porcellus, UniProt P41144); settings: read-out: K1 (nM) ± SEM K1 (κ); displacement of [3H]U69,593 (1.2-[…]), guinea pig brain membranes
[4] = target: T1, kappa (U69,593) (Mus musculus, UniProt P33534); experiment: Antagonism of kappa agonist U69,593 antinociception in the 55° C. tail-flick test; type: in vivo
T1 construct: male ICR mice(20-30 grams) were used; from tissue; host or cells: whole animal (male ICR mice), tail-flick test
Description: as §2
(§3) Mice were then injected with A90 doses of selective mu, delta or kappa agonists and antinociception was assessed in the 55° C. tail-flick test.

[5] = tested on: mouse vas deferens (MVD); experiment: Opioid agonist activity in electrically stimulated mouse vas deferens (MVD); type: cell-based; settings: percentage inhibition of contraction at 1 μM
Description: The opioid agonist and antagonist potencies were determined on the electrically stimulated mouse vas deferens (MVD) and guinea pig ileum (GPI) smooth muscle preparations.

[6] = target: T2, delta-2 ([D-Ala2, Glu4]deltorphin) (Mus musculus, UniProt P32300); experiment: Antagonism of delta-2 agonist [D-Ala2, Glu4]deltorphin antinociception in the 55° C. tail-flick test; type: in vivo
T2 construct: male ICR mice(20-30 grams) were used; from tissue; host or cells: whole animal (male ICR mice), tail-flick test
Description: as §2, §3

[7] = tested on: guinea pig ileum (GPI); experiment: Opioid agonist activity in electrically stimulated guinea pig ileum (GPI); type: cell-based
[8] = tested on: morphine pretreated mice; experiment: Acute morphine physical dependence, precipitated withdrawal (vertical jumps)
[9] = tested on: male ICR mice; experiment: Acetic acid writhing assay, antinociception, tolerance and antagonist pretreatment; type: in vivo, mouse; settings: for Repeated Injections A50 (95% C.I.) i.c.v. / Repeated Injections A50 (95% C.I.) i.p. / Control A50 (95% C.I.) i.p. / Control A50 (95% C.I.) i.c.v.: acetic acid writhing; for Repeated Injections A50 (95% C.I.) i.c.v. / Repeated Injections A50 (95% C.I.) i.p.: after A90 dose ×2 daily, 3 days; for Control A50 (95% C.I.) i.p. / Control A50 (95% C.I.) i.c.v.: control mice
Description: as §1, §2
Control mice received a vehicle injection (5 μl distilled water, i.c.v., −24 hr).

[10] = target: T3, delta-1 (DPDPE) (Mus musculus, UniProt P32300); experiment: Antagonism of delta-1 agonist DPDPE antinociception in the 55° C. tail-flick test; type: in vivo
T3 construct: male ICR mice(20-30 grams) were used; from tissue; host or cells: whole animal (male ICR mice), tail-flick test
Description: as §2, §3

[11] = target: T4, μ receptors (Rattus norvegicus, UniProt P33535); experiment: μ opioid receptor binding, displacement of [3H]DAMGO in rat brain membranes; settings: displacement of [3H]DAMGO (1.4-3.0 nM), read-out: K1 (nM) ± SEM μ
T4 construct: from tissue; host or cells: rat brain membranes

[12] = target: δ receptors (Rattus norvegicus, UniProt P33533); settings: read-out: K1 (nM) ± SEM δ; displacement of [3H]DADLE (1.3-2.0 nM), rat brain membranes, 100 nM DAMGO to block μ sites
[13] = target: T5, mu (DAMGO) (Mus musculus, UniProt P42866); experiment: Antagonism of mu agonist DAMGO antinociception in the 55° C. tail-flick test; type: in vivo
T5 construct: male ICR mice(20-30 grams) were used; from tissue; host or cells: whole animal (male ICR mice), tail-flick test
Description: as §2, §3

[14] = target: T6, δ opioid receptor (DPDPE) in the MVD preparation (Mus musculus, UniProt P32300); settings: data from published sources; cited from earlier work
T6 construct: electrically stimulated mouse vas deferens (MVD) and guinea pig ileum (GPI) smooth muscle preparations; from tissue; host or cells: mouse vas deferens

[15] = tested on: μ opioid receptor (PL-017) in the GPI preparation; settings: data from published sources; cited from earlier work
[16] = tested on: mouse vas deferens (MVD); settings: percentage inhibition of contraction at 1 μM; data from published sources; cited from earlier work

T3 sequence (P32300 whole entry): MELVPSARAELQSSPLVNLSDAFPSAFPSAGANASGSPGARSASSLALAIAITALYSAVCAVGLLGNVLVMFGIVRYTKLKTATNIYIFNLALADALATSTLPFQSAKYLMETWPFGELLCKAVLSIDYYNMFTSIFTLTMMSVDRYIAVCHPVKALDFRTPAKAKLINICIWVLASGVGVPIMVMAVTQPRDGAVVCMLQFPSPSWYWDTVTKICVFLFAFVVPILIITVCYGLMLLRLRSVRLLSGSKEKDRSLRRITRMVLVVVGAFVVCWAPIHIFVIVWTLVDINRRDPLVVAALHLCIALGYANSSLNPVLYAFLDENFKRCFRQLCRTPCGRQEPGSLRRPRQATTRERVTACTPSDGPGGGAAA
T2 sequence (P32300 whole entry): as above
T5 sequence (P42866 whole entry): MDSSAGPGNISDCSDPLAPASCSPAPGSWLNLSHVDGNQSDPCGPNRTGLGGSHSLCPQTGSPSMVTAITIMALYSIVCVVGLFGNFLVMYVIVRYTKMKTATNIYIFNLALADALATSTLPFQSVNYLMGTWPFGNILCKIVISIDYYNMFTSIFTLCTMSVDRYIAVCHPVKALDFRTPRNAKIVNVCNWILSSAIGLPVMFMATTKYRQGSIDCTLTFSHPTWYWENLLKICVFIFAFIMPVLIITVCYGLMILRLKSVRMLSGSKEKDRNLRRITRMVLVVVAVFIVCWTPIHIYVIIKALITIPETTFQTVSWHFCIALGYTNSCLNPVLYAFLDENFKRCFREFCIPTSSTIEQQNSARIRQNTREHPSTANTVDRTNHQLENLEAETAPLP
κ receptors, sequence (P41144 whole entry): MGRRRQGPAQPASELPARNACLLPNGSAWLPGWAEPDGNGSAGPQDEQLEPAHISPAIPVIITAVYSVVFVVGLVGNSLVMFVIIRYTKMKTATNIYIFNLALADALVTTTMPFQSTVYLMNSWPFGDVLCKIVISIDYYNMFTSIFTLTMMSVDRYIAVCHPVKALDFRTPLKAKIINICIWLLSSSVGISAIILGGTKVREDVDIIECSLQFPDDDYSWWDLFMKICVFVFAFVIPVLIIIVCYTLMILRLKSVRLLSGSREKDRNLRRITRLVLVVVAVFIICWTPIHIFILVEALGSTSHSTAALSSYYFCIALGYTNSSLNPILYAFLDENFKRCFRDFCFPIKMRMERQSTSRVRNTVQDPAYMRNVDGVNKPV
δ receptors, sequence (P33533 whole entry): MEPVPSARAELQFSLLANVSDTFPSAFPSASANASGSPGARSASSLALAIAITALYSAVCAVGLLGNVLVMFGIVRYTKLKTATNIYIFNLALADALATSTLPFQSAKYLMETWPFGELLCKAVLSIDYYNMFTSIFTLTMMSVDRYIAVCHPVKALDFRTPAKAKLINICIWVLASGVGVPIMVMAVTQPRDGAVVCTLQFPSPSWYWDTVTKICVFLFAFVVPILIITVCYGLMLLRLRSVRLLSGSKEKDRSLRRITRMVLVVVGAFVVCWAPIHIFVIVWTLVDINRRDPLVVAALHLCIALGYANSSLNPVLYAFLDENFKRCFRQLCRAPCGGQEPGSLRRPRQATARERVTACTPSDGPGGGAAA
T1 sequence (P33534 whole entry): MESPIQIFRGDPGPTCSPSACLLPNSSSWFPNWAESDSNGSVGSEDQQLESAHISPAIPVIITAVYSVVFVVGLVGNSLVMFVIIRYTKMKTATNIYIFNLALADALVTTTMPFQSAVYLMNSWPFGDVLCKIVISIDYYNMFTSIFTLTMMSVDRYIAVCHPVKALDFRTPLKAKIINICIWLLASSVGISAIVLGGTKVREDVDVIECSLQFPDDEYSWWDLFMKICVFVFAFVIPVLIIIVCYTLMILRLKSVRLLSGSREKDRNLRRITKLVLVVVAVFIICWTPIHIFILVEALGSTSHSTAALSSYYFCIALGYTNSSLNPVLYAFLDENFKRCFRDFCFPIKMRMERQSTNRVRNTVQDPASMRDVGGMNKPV
T6 sequence (P32300 whole entry): as the sequence (P32300 whole entry) above
T4 sequence (P33535 whole entry): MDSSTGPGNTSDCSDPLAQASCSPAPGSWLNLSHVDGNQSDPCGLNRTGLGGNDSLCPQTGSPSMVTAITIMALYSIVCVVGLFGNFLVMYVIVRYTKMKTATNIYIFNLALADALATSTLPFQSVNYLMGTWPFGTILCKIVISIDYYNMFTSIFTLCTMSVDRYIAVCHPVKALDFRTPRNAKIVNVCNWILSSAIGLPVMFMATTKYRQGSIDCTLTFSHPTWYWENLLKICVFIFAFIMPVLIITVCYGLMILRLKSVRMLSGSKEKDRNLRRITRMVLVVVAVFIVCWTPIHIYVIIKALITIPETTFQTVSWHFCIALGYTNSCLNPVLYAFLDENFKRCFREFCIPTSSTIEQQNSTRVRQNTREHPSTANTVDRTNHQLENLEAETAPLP

## Oc1ccc2c3c1O[C@H]1c4ncc(-c5ccc(Cl)cc5)cc4C[C@@]4(O)[C@@H](C2)N(CC2CC2)CC[C@]314 [Compound 6d, 5′-(4-Chlorophenyl)-17-(Cyclopropylmethyl)-6,7-didehydro-3,14-dihydroxy-4,5α-epoxypyrido[2′3′:6,7]morphinan]
[1]
  overt signs of toxicity: did not display any overt signs of toxicity
[2]; 100 nmol i.c.v., mice
  % MPE tail flick: 40.3 % MPE
[2]; 55° C. tail-flick, mice
  A50 tail-flick i.c.v.: greater than 100 nmol
[2]; 55° C. tail-flick
  agonist character in tail-flick, i.c.v.: only partial agonist effects
[2]; i.p., doses up to 60 mg/kg
  antinociceptive effect in tail flick, i.p.: no measurable antinociceptive effect
[3]
  Ki: 20 ± 1.04 nM
[4]; i.p. pretreatment -20 min, A90 i.c.v. agonist 60 nmol, tail-flick
  ID50 (mg/kg) against U69,593: >60 mg/kg
[4]; i.p., doses of up to 60 mg/kg
  effect on antinociception of kappa agonist U69,593, in words: did not affect
[5]
  agonist activity MVD % max resp: 21%
[6]; i.p.
  antagonism of delta-2 agonist, in words: potently antagonized
[6]; i.p. pretreatment -20 min, A90 i.c.v. agonist 20 nmol
  ID50 (mg/kg) against [D-Ala2, Glu4]deltorphin: 3.4 mg/kg
[7]
  agonist character in the GPI: full agonist
[7]; Cavia porcellus, agonist
  IC50: 163 nM
[8]; 10 mg/kg i.p., 4 hr after morphine 100 mg/kg, vs naloxone 10 mg/kg i.p., p<0.001
  vertical jumps precipitated in morphine pretreated mice: significantly less vertical jumps than naloxone injection
[8]; coadministration 6d 10 mg/kg i.p. + naloxone 10 mg/kg i.p., p<0.05
  attenuation of naloxone precipitated withdrawal (jumps): significantly less jumps than naloxone alone; also recorded: attenuated opioid withdrawal
[9]; 30 nmol i.c.v. (A90), vs vehicle, p<0.001
  number of writhes: significantly decreased the number of writhes
[9]
  Repeated Injections A50 (95% C.I.) i.c.v.: 10.9 nmol (7.2-16.5
  Repeated Injections A50 (95% C.I.) i.p.: 3.85 mg/kg (0.9-16.0
  Control A50 (95% C.I.) i.p.: 4.6 mg/kg (2.5-8.6
[9]; icv injection
  agonist character in acetic acid writhing, i.c.v.: full agonist activity
[9]; naltrindole 20 mg/kg i.p. -20 min (p>0.99) or nor-BNI 1 nmol i.c.v. -24 hr (p>0.13), 6d 30 nmol i.c.v.
  blockade of antinociception by delta or kappa antagonist pretreatment: not by naltrindole (p>0.99) or nor-BNI
[9]; β-FNA 19 nmol i.c.v. -24 hr, 6d 30 nmol i.c.v., p<0.002
  blockade of antinociception by mu antagonist pretreatment: blocked by pre-treatment with β-FNA
[10]; i.p. pretreatment -20 min, A90 i.c.v. agonist 30 nmol
  ID50 (mg/kg) against DPDPE: 15.3 mg/kg
[10]; i.p., compared with delta-2
  antagonism of delta-1 agonist DPDPE, in words: much less potent
[11]
  Ki: 51 ± 8 nM
[12]
  Ki: 2.2 ± 0.16 nM
[13]; i.p. pretreatment -20 min, A90 i.c.v. agonist 0.1 nmol
  ID50 (mg/kg) against DAMGO: 28.9 mg/kg
[13]; i.p., compared with delta-2
  antagonism of mu agonist DAMGO, in words: much less potent

## CN1CC[C@]23c4c5ccc(O)c4O[C@H]2[C@@H](O)C=C[C@H]3[C@H]1C5 [morphine, reference compound]
[2]; 55° C. tail-flick, mice
  A50 tail-flick i.c.v.: 2.94 nmol and 1.7 nmol
[2]; 55° C. tail-flick, i.p., mice
  A50 tail-flick i.p.: 8.0 mg/kg
[2]; 55° C. tail-flick
  agonist character in tail-flick, i.c.v.: full agonist effect
[9]
  Repeated Injections A50 (95% C.I.) i.c.v.: 0.05 nmol (0.03-0.08
  Control A50 (95% C.I.) i.c.v.: 0.004 nmol
  Repeated Injections A50 (95% C.I.) i.p.: 4.78 mg/kg (3.7-6.2
  Control A50 (95% C.I.) i.p.: 2.2 mg/kg (1.8-2.7
[9]; listed as Morphine
  Control A50 (95% C.I.) i.c.v.: 0.004 nmol (0.003-0.006

## Oc1ccc2c3c1O[C@H]1c4[nH]c5ccccc5c4C[C@@]4(O)[C@@H](C2)N(CC2CC2)CC[C@]314 [naltrindole]
[3]
  Ki: 35.8 ± 4 nM
[14]
  antagonist activity DPDPE (δ) Ke: 0.49 nM
[15]
  antagonist activity PL-017 (μ) Ke: 43 nM
[16]
  agonist activity MVD % max resp: 16%
[12]
  Ki: 0.41 ± 0.09 nM
